One data set deals with blood pressure. The data set is described as follows: Change in blood pressure in anesthetized rats (Experiment 1). The class given is in vivo, Male Wister rat. Conditions: for Change in Blood Pressure (%): 1 mg/kg into tail vein, anesthetized rat, average of 5 data per group; for Blood Pressure: Table 2, class symbols. How it is done: Male Wister rat (8-week old) was anesthetized by intraperitoneally administering urethane (1.25 g/kg). Polyethylene tube was inserted into femoral artery and connected with a pressure transducer to measure blood pressure.
The test drugs were dissolved in ethanol, diluted with Ringer's solution before use and a dose of 1 mg/kg was administered into tale vein. The maximum concentration of ethanol was 2%. As reference, ethanol-Ringer's solution without containing test drugs was used and the effect was checked in each experiment without failing. The rate of change in blood pressure (%) was determined by average of 5 data per group.

The subject of another data set is mouse. The data set is described as follows: Acute toxicity upon oral administration (Experiment 6). To be noted: mouse (5 weeks old). The format is in vivo, Male Slc-ddY mouse. An excerpt: Using Male Slc-ddY mouse (5 weeks old), acute toxicity upon oral administration (LD50) was examined.
The subject of the next data set is pulse. Also noted: species or system Male Wister rat. Conditions: rat, in vivo. How it is done:
Male Wister rat (8-week old) was anesthetized by intraperitoneally administering urethane (1.25 g/kg). A tachometer was operated by R wave of electrocardiogram of exterminal derivation. The effect of the tested 15-keto-PGEs on pulse is evaluated by the value calucurated from the following formula: [formula]

Regarding “13,14-dihydro-15-keto-9β,11α-PGF2 methyl ester [Test Drug 3]”, in the data set on blood pressure, the “Change in Blood Pressure (%)” value is listed as “+5%”.
For “13,14-dihydro-15-keto-16,16-dimethyl-PGF2 α ethyl ester [Test Drug 4]”, the “Change in Blood Pressure (%)” value with blood pressure is “+7%”.
Same read-out and setting: then “13,14-dihydro-15-keto-16-desbutyl-16-m-trifluoromethylphenoxy-PGF2 α methyl ester [Test Drug 23]”, with “+5%”; and “13,14-dihydro-15-keto-16R,S-fluoro-11R-dehydroxy-11R-methyl-PGF2 α methyl ester [Test Drug 8]”, with “+44%”.
As for “13,14-dihydro-15-keto-16R,S-fluoro-PGF2 α [Test Drug 5]”, the “Change in Blood Pressure (%)” value in the data set on blood pressure is given as “+7%”.
As to “13,14-dihydro-15-keto-16R,S-fluoro-PGF2 α methyl ester [Test Drug 6]”, the “Change in Blood Pressure (%)” value with blood pressure is “+18%”.
“13,14-dihydro-15-keto-17S-methyl-PGF2 α ethyl ester [Test Drug 13]”: in the data set with blood pressure, the “Change in Blood Pressure (%)” value is reported as “+18%”.
The same measure, in the same setting: then “13,14-dihydro-15-keto-20-ethyl-11R-dehydroxy-11R-methyl-PGF2 α methyl ester [Example 15]”, with “+7%”; and “13,14-dihydro-15-keto-20-ethyl-16R,S-fluoro-11R-dehydroxy-11R-methyl-PGF2 α methyl ester [Test Drug 12]”, with “+13%”; and “13,14-dihydro-15-keto-20-ethyl-16R,S-fluoro-PGF2 α [Test Drug 10]”, with “+35%”.
With “13,14-dihydro-15-keto-20-ethyl-16R,S-fluoro-PGF2 α methyl ester [Test Drug 11]”, the “Change in Blood Pressure (%)” value in the data set with blood pressure is listed as “+8%”.
Regarding “13,14-dihydro-15-keto-20-ethyl-PGF1 α methyl ester [Test Drug 25]”, the “Change in Blood Pressure (%)” value in the data set on blood pressure was “+32%”.
With “13,14-dihydro-15-keto-20-ethyl-PGF2 α [Test Drug 15]”, the “Change in Blood Pressure (%)” value in the data set with blood pressure was “+24%”.
On the same count and under the same terms, in the case of “13,14-dihydro-15-keto-20-ethyl-PGF2 α ethyl ester [Test Drug 17]” it was “+20%”.
On to “13,14-dihydro-15-keto-20-ethyl-PGF2 α isopropyl ester [Test Drug 18]”, for which the “Change in Blood Pressure (%)” value in the data set on blood pressure is reported as “+16%”. The “Blood Pressure” value in the data set with blood pressure (rat) is given as “.uparw. (increase more than 10%)”. Further, the “LD50 (oral)” value in the data set on mouse is given as more than 2000 mg/kg.
“13,14-dihydro-15-keto-20-ethyl-PGF2 α methyl ester [Test Drug 16]”: the “Change in Blood Pressure (%)” value in the data set on blood pressure is “+26%”. Also, in the data set with blood pressure (rat), the “Blood Pressure” value is given as “.uparw. (increase more than 10%)”. For the same molecule, in the data set with mouse, the “LD50 (oral)” value is more than 2000 mg/kg.
Consider “13,14-dihydro-15-keto-20-ethyl-PGF2 α n-butyl ester [Test Drug 19]”, for which, in the data set on blood pressure, the “Change in Blood Pressure (%)” value is on record as “+8%”.
Same read-out and setting: then “13,14-dihydro-15-keto-20-methoxy-PGF2 α methyl ester [Example 9]”, with “+41%”.
Consider “13,14-dihydro-15-keto-20-methyl-PGF2 α methyl ester [Test Drug 14]”, for which the “Change in Blood Pressure (%)” value in the data set with blood pressure was “+10%”.
“13,14-dihydro-15-keto-20-n-butyl-PGF2 α methyl ester [Test Drug 22]”: in the data set on blood pressure, the “Change in Blood Pressure (%)” value was “+14%”.
In the case of “13,14-dihydro-15-keto-PGF1 α ethyl ester [Test Drug 24]”, the “Change in Blood Pressure (%)” value in the data set on blood pressure is “+27%”.
Take “13,14-dihydro-15-keto-PGF2 α methyl ester [Test Drug 1]”: the “Change in Blood Pressure (%)” value in the data set on blood pressure was “+14%”. Further, in the data set on blood pressure (rat), the “Blood Pressure” value is on record as “.uparw. (increase more than 10%)”.
As to `CCCCC[C@H](O)/C=C/[C@@H]1[C@@H](C/C=C\CCCC(=O)O)[C@@H](O)C[C@H]1O` [PGF2 α, (Z)-7-[(1R,2R,3R,5S)-3,5-dihydroxy-2-{(E)-(3S)-3-hydroxy-1-octenyl}-cyclopentyl]-5-heptenoic acid, reference compound], in the data set on pulse, the Pulse result was “.dwnarw. → .uparw” and the “effect on pulse (in words)” value was “ephemeral decrease in pulse”. In the data set on blood pressure (rat), the “Blood Pressure” value is “.dwnarw. → .uparw” and the “effect on blood pressure (in words)” value is recorded as “ephemeral decrease in pulse as well as blood pressure”.
In the case of `CCCCCC(=O)CC[C@@H]1[C@@H](C/C=C\CCCC(=O)OCC)[C@@H](O)C[C@H]1O` [Test Drug 2, 13,14-dihydro-15-keto-PGF2 α ethyl ester], in the data set on blood pressure, the “Change in Blood Pressure (%)” value is “+17%”.
With `CCCCCCCCC(=O)CC[C@@H]1[C@@H](C/C=C\CCCC(=O)OC)[C@@H](O)C[C@H]1O` [Test Drug 21, 13,14-dihydro-15-keto-20-n-propyl-PGF2 α methyl ester], the “Change in Blood Pressure (%)” value in the data set with blood pressure was “+16%”.
As to `CCCCCC(=O)CC[C@@H]1[C@@H](C/C=C\CCCC(=O)OC)[C@@H](O)C[C@H]1O` [compound 1], the “Change in Blood Pressure (%)” value in the data set with blood pressure was “+12%”.

For the origin of these results see patent US5770759A, “Prostaglandins of the F series” (priority 1987, dated 1998).
